≈ marks a conversion by molar mass, not a printed value.
Key:
[1] = physchem; details: water
Procedure: The pH was adjusted with a buffer solution to 6 and distilled water was added to bring the solution to 1% concentration. The resulting mixture was agitated on a horizontal shaker at room temperature for 24 hours.
The pH was then adjusted to 6.5 with a concentrated aqueous hydrochloric acid solution to convert the complexed salt to the complexed product of the process and agitation was continued for 2 hours.

[2] = cited from earlier work

solubility thermodynamic at 24 h ([1]; pH 6, water): 0.5 mg/mL (≈ 1690 µM)
solubility ([1]; water solubility of uncomplexed chlorothiazide): ~0.5 mg/mL (≈ 1690 µM)
Compound: NS(=O)(=O)c1cc2c(cc1Cl)N=CNS2(=O)=O [chlorothiazide, 6-chloro-7-sulfamyl-1,2,4-benzothiadiazine-1,1-dioxide]
solubility in alkaline aqueous solutions ([2]; alkaline aqueous solutions / alkali hydroxides): soluble in alkaline aqueous solutions
water-solubility ([2]; pH 6): 0.5 g. per liter

Reference: patent publication US4713238A (GAF Corporation, priority 1986, dated 1987)
